# Laboratory results taken from patent US12421276B2 (priority 2016, dated 2025).
# Values joined by “and” are separate entries in the source; they are usually repeats but may differ in a detail not shown here. Equal values may be shown once. Read-outs that look alike come from different tables or passages of the source. Where a SMILES comes first, the peptide text is derived from it. [ ]: non-standard residue; d: D form. The star is where a group is joined. Hexanoyl = CCCCCC(=O)*; Ahx = NCCCCCC(=O)O
# Columns and labels:
# [1] = Plasma stability study, rat plasma; type: in vitro ADME; settings: Rat plasma, 1 μM, 37° C.
# In short: (§1)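 Compounds (1 μM, from 0.3 mM DMSO stock) incubated at 37° C in K2 EDTA plasma, quenched at time points with acetonitrile/methanol/formic acid plus internal standard, and analysed by LC/MS/MS. Disappearance measured relative to 0-min control; t½ derived from elimination rate constant of semi-log % remaining versus time regression.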
# [2] = type: in vivo, rat
# Protocol: • 1. Eight (8) male JVC SD rats (purchased from Charles River Lab) were monitored daily for body condition and health status during the 3-5 days acclimation period. The rats were randomly assigned into […] (n=4). • 2. […] The dosed rats were individually placed into a metabolic cage, and have access to food and water at all times. The urine from each rat was collected daily from the metabolic cages, and kept in dry ice. • 4. At predose (0 min), 5 min, 15 min, 30 min, 1 hr, 2 hr, 8 hr, and 24 hr post dosing, approximately 200 ul blood samples were collected from each rat and transferred to EDTA tubes. • 5. The blood samples in EDTA vials were centrifuged at 4° C. and 6,000 rpm for 10 minutes to generate ˜100 μl of plasma per sample. Blood samples were processed as quickly as possible and remain no longer than 2 min at room temperature and no longer than 15 minutes at 4° C. prior to processing. • 6. All samples were transferred for bioanalytic assay using LCMS
# [3] = Metabolic stability in simulated gastric fluid (SGF), pH 1.2, with or without pepsin; type: in vitro ADME; settings: 5 μM, 37° C.
# In short: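 Compound at 5 μM incubated at 37 °C in SGF (34.2 mM NaCl, pH 1.2) without or with 0.32% pepsin; acetonitrile/formic acid quench at time points, LC/MS/MS. Disappearance relative to 0-min; t½ from elimination rate constant of semi-log % remaining vs time.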
# [4] = test system: Caco-2 cells; assay: Caco-2 permeability study with or without P-gp inhibitor GF120918; settings: for Caco-2 Cells Permeability Recovery Rate: 1 hr, pH 7.4
# Protocol: Buffer=HBSS, pH 7.4 with 5 mM HEPES
# Caco-2 cell plates were obtained commercially and were maintained for 21 days at 37° C. with 5% CO2. Cells were washed with Hank's Balanced Salt Solution (HBSS) 30 min before starting the experiment. Test compound solutions were prepared by diluting from DMSO stock into HBSS buffer in the presence or absence of 10 μM of P-gp inhibitor GF120918. The final DMSO concentration is 0.2%. Prior to each experiment, cell monolayer integrity was verified by transendothelial electrical resistance (TEER). Transport experiment was initiated by adding test compounds to the apical (75 μL) side. Transport plates were incubated at 37° C. in a humidified incubator with 5% CO2. Samples were taken from the donor and acceptor compartments after 1 hr and analyzed by liquid chromatography with tandem mass spectrometry (LC/MS/MS).
# Apparent permeability (Papp) values were calculated using the following equation: Papp=(dQ/dt)/A/C0
# where dQ/dt is the initial rate of amount of test compound transported across cell monolayer, A is the surface area of the filter membrane, and C0 is the initial concentration of the test compound. C0 is calculated for each condition using a 4-point calibration curve.
# Absorption quotient between the two assay conditions was calculated by the following equation:
# Absorption quotient (AQ)=(Papp, A-B with inhibitor−Papp, A-B without inhibitor)/Papp, A-B with inhibitor where Papp, A-B with inhibitor and Papp, A-B without inhibitor represent the apparent permeability of test compound from the apical to basal side of the cellular monolayer in the presence and absence of 10 μM P-gp inhibitor GF120918, respectively.
# All samples were analyzed on LC/MS/MS using an AB Sciex API 4000 instrument, coupled to a Shimadzu LC-20AD LC Pump system. Analytical samples were separated using a Waters Atlantis T3 dC18 reverse phase HPLC column (10 mm×2.1 mm) at a flow rate of 0.5 mL/min. The mobile phase consisted of 0.1% formic acid in water (solvent A) and 0.1% formic acid in acetonitrile (solvent B).
# [5] = Plasma stability study, human plasma; type: in vitro ADME; settings: Human plasma, 1 μM, 37° C.
# In short: as §1
# [6] = Metabolic stability in simulated intestinal fluid (SIF), pH 6.8, with or without pancreatin; type: in vitro ADME; settings: −Pancreatin, 5 μM, 37° C.
# In short: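 Compounds at 5 μM incubated at 37 °C in freshly made SIF pH 6.8 (NaOH/NaH2PO4/NaCl), with or without 1% pancreatin. Remaining parent measured by LC/MS/MS against 0-min control; t½ derived from elimination rate constant (−slope) of semi-log % remaining vs time.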
# [7] = Rat, PO, 10 mg/kg equiv., n = 4, analyte: Parent (BASE STRUCTURE)
# [8] = rat, dosed as Base Structure 20 mg/kg, analyte Parent (Base Structure), Average
# [9] = rat, dosed as Base Structure 20 mg/kg, analyte Parent (Base Structure), Combined (average ± std. dev.)
# [10] = rat, dosed as Base Structure 20 mg/kg, analyte Parent (Base Structure), individual animals
structure (smiles),measurement,setting,value
"CCCCCC(=O)N[C@@H](Cc1ccc(O)cc1)C(=O)N[C@H](C(=O)NCCCCCC(N)=O)[C@@H](C)CC [Base Structure, N-hexanoic-L-tyrosine-L-isoleucine-(6)-aminohexanoic amide, reference compound] (Hexanoyl-Tyr-Ile-[Ahx]-NH2)",Plasma Stability Half-Life,[1],1095.1 min
same,Plasma Stability (% Parent Remaining) 0 min,[1]; 0 min,100%
same,Plasma Stability (% Parent Remaining) 60 min,[1]; 60 min,87%
same,Plasma Stability (% Parent Remaining) 120 min,[1]; 120 min,89%
same,Plasma Stability (% Parent Remaining) 240 min,[1]; 240 min,83%
same,AUC0-24,[2]; [7],0.4 ± 0.2 ng·h/mL
same,Cmax,[2]; [7],0.9 ± 0.5 ng/mL
same,Tmax,[2]; [7],24 ± 30 min
same,AUC 0-t,[2]; [8],0.4468 ng·h/mL
same,Cmax,[2]; [8],0.9267 ng/mL
same,Tlag,[2]; [8],0 h
same,Tmax,[2]; [8],26.6 min
same,AUC 0-t,[2]; [9],0.4 ± 0.2 ng·h/mL
same,Cmax,[2]; [9],0.9 ± 0.5 ng/mL
same,Tlag,[2]; [9],0 ± 0 h
same,Tmax,[2]; [9],24 ± 30 min
same,AUC 0-t,[2]; [10],0.6164 ng·h/mL and 0.5175 ng·h/mL and 0.2066 ng·h/mL
same,Cmax,[2]; [10],0.689 ng/mL and 1.54 ng/mL and 0.551 ng/mL
same,Tlag,[2]; [10],0 h
same,Tmax,[2]; [10],4.8 min and 15 min and 60 min
same,SGF Stability (pH 1.2) Half-Life (min),[3]; +Pepsin (0.32%),26.0 min
same,SGF Stability (pH 1.2) 0 min,[3]; +Pepsin (0.32%),100%
same,SGF Stability (pH 1.2) 60 min,[3]; +Pepsin (0.32%),13%
same,SGF Stability (pH 1.2) 240 min,[3]; +Pepsin (0.32%),0.2%
same,SGF Stability (pH 1.2) Half-Life (min),[3]; −Pepsin,Neg.
same,SGF Stability (pH 1.2) 0 min,[3]; −Pepsin,100%
same,SGF Stability (pH 1.2) 60 min,[3]; −Pepsin,127%
same,SGF Stability (pH 1.2) 240 min,[3]; −Pepsin,122%
same,Abs. Quotient,[4]; (Papp A-B with inhibitor − without inhibitor)/Papp A-B with inhibitor,0.84 and 0.82
same,Caco-2 Cells Permeability Recovery Rate,"[4]; +GF120918 (10 μM), 10 μM compound",83% and 96%
same,Caco-2 Cells Permeability Recovery Rate,"[4]; −GF120918, 10 μM compound",87% and 91%
same,Plasma Stability Half-Life,[5],209.3 h
same,Plasma Stability (% Parent Remaining) 0 min,[5]; 0 min,100%
same,Plasma Stability (% Parent Remaining) 60 min,[5]; 60 min,98%
same,Plasma Stability (% Parent Remaining) 120 min,[5]; 120 min,102%
same,Plasma Stability (% Parent Remaining) 240 min,[5]; 240 min,98%
same,SIF Stability (pH 6.8) Half-Life (min),[6],Neg.
same,SIF Stability (pH 6.8) 0 min,[6]; 0 min,100%
same,SIF Stability (pH 6.8) 60 min,[6]; 60 min,119%
same,SIF Stability (pH 6.8) 240 min,[6]; 240 min,113%
